In US20230257374A1, “NOVEL KRAS G12C PROTEIN INHIBITOR, PREPARATION METHOD THEREFOR, AND USE THEREOF” (INNOVENT BIOLOGICS (SUZHOU) CO., LTD., priority 2019, published 2023):
pIC50: −log10 of the molar value.

How the values were obtained:
KRAS G12C protein = target: T1, KRAS G12C protein (Homo sapiens, UniProt P01116, G12C); assay: ERK protein phosphorylation assay (p-ERK) in H358 cells; type: cell-based; design: scale not given here; settings: H358 cells expressing KRAS G12C protein, 3 h incubation with compound; read-out: IC50, inhibiting phosphorylation of KRAS G12C protein-mediated downstream signaling (p-ERK)
T1 construct: H358 cells (ATCC, CRL-5807) expressing KRAS G12C protein; host or cells: H358 (NCI-H358) cells
T1 sequence (P01116 1-188 isoform P01116-2 G12C): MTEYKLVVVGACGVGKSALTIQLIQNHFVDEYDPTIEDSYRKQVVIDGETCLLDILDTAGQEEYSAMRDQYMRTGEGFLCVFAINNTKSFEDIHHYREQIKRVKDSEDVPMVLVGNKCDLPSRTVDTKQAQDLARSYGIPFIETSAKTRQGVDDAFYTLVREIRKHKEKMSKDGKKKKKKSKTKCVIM
Method: The cells were cultured in a 5% CO2 cell incubator for 16 h. The serially diluted compound was added to the cell medium with Echo550 at a final DMSO concentration of 0.5%, and the incubation was continued for 3 h. Then 8% paraformaldehyde (Solarbio, P1112) was added at 40 μL/well, followed by incubation at room temperature for 20 min. After one washing with PBS, cold 100% methanol was added at 40 μL/well for permeabilization for 10 min. […] Washing with PBST was performed 3 times, with 2 min of incubation for each washing. […] Washing with PBST was performed 3 times, with 2 min of incubation for each washing. Finally, the cell culture plate was inverted and centrifuged at 1000 rpm for 1 min, after which fluorescence signals were read using Odyssey CLx.

[1] = Stability test in human plasma
Method: To examine the stability of the test compounds in plasma, representative compounds were selected for evaluation.
Preparation of stock solution: a test compound was dissolved in DMSO to prepare a 1 mM stock solution for later use; Propantheline Bromide was dissolved in acetonitrile to prepare a 1 mM stock solution as a positive control for later use.
To each well was added 2 μL of the stock solution of the test compound and the stock solution of the positive control such that the final concentrations were 5 KM and the concentration of the organic solvent was 0.5%. Each compound was prepared in duplicate, followed by incubation at 37° C. 50 μL of samples were taken from the reaction samples in equal amounts at 0, 30, 60, 120, 180 and 240 minutes, and 450 μL of cold acetonitrile containing an internal standard was added to terminate the reaction. […] 100 μL of the supernatants were transferred to a new plate, dilute with ultra-pure water, and analyzed by LC-MS/MS.
Data results were calculated according to peak area ratios.
The percentage of remaining compound for each time point was calculated as follows:
Remaining percentagemin(%)=peak area ratiosmin/peak area ratiomin×100%
where peak area ratios represents the peak area ratio of the test compound to the internal standard compound at t min; peak area ratiomin represents the peak area ratio of the test compound to the internal standard compound at 0 min (initial).

A pIC50 (KRAS G12C protein) greater than 6.00 was found for `[2H]C([2H])([2H])N1CCC[C@H]1COc1nc2c(c(N3CCN(C(=O)C=C)[C@@H](CC#N)C3)n1)CCN(c1cncc3cccc(Cl)c13)C2` [Compound 20, 2-((S)-1-acryloyl-4-(7-(5-chloroisoquinolin-4-yl)-2-(((S)-1-(methyl-d3)pyrrolidin-2-yl)methoxy)-5,6,7,8-tetrahydropyrido[3,4-d]pyrimidin-4-yl)piperazin-2-yl)acetonitrile] in this work.
A pIC50 (KRAS G12C protein) greater than 6.00 was found for `[2H]C([2H])([2H])c1cccc2cccc(N3CCc4c(nc(OC[C@@H]5CCCN5C([2H])([2H])[2H])nc4N4CCN(C(=O)C=C)[C@@H](C)C4)C3)c12` [Compound 21, 1-((S)-2-methyl-4-(7-(8-(methyl-d3)naphthalen-1-yl)-2-(((S)-1-(methyl-d3)pyrrolidin-2-yl)methoxy)-5,6,7,8-tetrahydropyrido[3,4-d]pyrimidin-4-yl)piperazin-1-yl)-2-propen-1-one] in this work.
A pIC50 (KRAS G12C protein) greater than 6.00 was found for `[2H]C([2H])([2H])N1CCC[C@H]1COc1nc2c(c(N3CCN(C(=O)C=C)[C@@H](CC#N)C3)n1)CCN(c1cccc3cccc([11CH3])c13)C2` [Compound 22, 2-((S)-1-acryloyl-4-(2-(((S)-1-(methyl-d3)pyrrolidin-2-yl)methoxy)-7-(8-(methyl-^11C)naphthalen-1-yl)-5,6,7,8-tetrahydropyrido[3,4-d]pyrimidin-4-yl)piperazin-2-yl)acetonitrile] in this work.
A pIC50 (KRAS G12C protein) greater than 6.00 was found for `[2H]C([2H])([2H])c1cccc2cccc(N3CCc4c(nc(OC[C@@H]5CCCN5C([2H])([2H])[2H])nc4N4CCN(C(=O)C(=C)F)C[C@@H]4C)C3)c12` [Compound 23, 2-fluoro-1-((S)-3-methyl-4-(7-(8-(methyl-d3)naphthalen-1-yl)-2-(((S)-1-(methyl-d3)pyrrolidin-2-yl)methoxy)-5,6,7,8-tetrahydropyrido[3,4-d]pyrimidin-4-yl)piperazin-1-yl)-2-propen-1-one] in this work.
A pIC50 (KRAS G12C protein) greater than 6.00 was found for `[2H]C([2H])([2H])c1cccc2cccc(N3CCc4c(nc(OC[C@@H]5CCCN5C([2H])([2H])[2H])nc4N4CCN(C(=O)C=C)C[C@@H]4C)C3)c12` [Compound 24, 1-((S)-3-methyl-4-(7-(8-(methyl-d3)naphthalen-1-yl)-2-(((S)-1-(methyl-d3)pyrrolidin-2-yl)methoxy)-5,6,7,8-tetrahydropyrido[3,4-d]pyrimidin-4-yl)piperazin-1-yl)-2-propen-1-one] in this work.
A pIC50 (KRAS G12C protein) greater than 6.00 was found for `C=CC(=O)N1CCN(c2nc(OC[C@@H]3CCCN3[11CH3])nc3c2CCN(c2cccc4cccc(C)c24)C3)C[C@@H]1CC#N` [Compound 25, 2-((S)-1-acryloyl-4-(2-(((S)-1-(methyl-^11C)pyrrolidin-2-yl)methoxy)-7-(8-methylnaphthalen-1-yl)-5,6,7,8-tetrahydropyrido[3,4-d]pyrimidin-4-yl)piperazin-2-yl)acetonitrile] in this work.
A pIC50 (KRAS G12C protein) greater than 6.00 was found for `C=CC(=O)N1CCN(c2nc(OC[C@@H]3CCCN3[13CH3])nc3c2CCN(c2cccc4cccc(C)c24)C3)C[C@@H]1CC#N` [Compound 26, 2-((S)-1-acryloyl-4-(2-(((S)-1-(methyl-^13C)pyrrolidin-2-yl)methoxy)-7-(8-methylnaphthalen-1-yl)-5,6,7,8-tetrahydropyrido[3,4-d]pyrimidin-4-yl)piperazin-2-yl)acetonitrile] in this work.
A pIC50 (KRAS G12C protein) greater than 6.00 was found for `[2H]C([2H])([2H])N1CCC[C@H]1COc1nc2c(c(N3CCN(C(=O)C(=C)F)[C@@H](CC#N)C3)n1)CCN(c1cccc3cccc([14CH3])c13)C2` [Compound 29, 2-((S)-1-(2-fluoroacryloyl)-4-(2-(((S)-1-(methyl-d3)pyrrolidin-2-yl)methoxy)-7-(8-(methyl-^14C)naphthalen-1-yl)-5,6,7,8-tetrahydropyrido[3,4-d]pyrimidin-4-yl)piperazin-2-yl)acetonitrile] in this work.
A pIC50 (KRAS G12C protein) greater than 6.00 was found for `[2H]C([2H])([2H])N1CCC[C@H]1COc1nc2c(c(N3CCN(C(=O)C=C)[C@@H](CC#N)C3)n1)CCN(c1cncc3cccc(C)c13)C2` [Compound 30, 2-((S)-1-acryloyl-4-(2-(((S)-1-(methyl-d3)pyrrolidin-2-yl)methoxy)-7-(5-methylisoquinolin-4-yl)-5,6,7,8-tetrahydropyrido[3,4-d]pyrimidin-4-yl)piperazin-2-yl)acetonitrile] in this work.
A pIC50 (KRAS G12C protein) greater than 6.00 was found for `[2H]C([2H])([2H])N1CCC[C@H]1COc1nc2c(c(N3CCN(C(=O)C=C)[C@@H](CC#N)C3)n1)CCN(c1cncc3cccc([13CH3])c13)C2` [Compound 31, 2-((S)-1-acryloyl-4-(2-(((S)-1-(methyl-d3)pyrrolidine-2-yl)methoxy)-7-(5-(methyl-^13C)isoquinolin-4-yl)-5,6,7,8-tetrahydropyrido[3,4-d]pyrimidin-4-yl)piperazin-2-yl)acetonitrile] in this work.
A pIC50 (KRAS G12C protein) greater than 6.00 was found for `[2H]C([2H])([2H])N1CCC[C@H]1COc1nc2c(c(N3CCN(C(=O)C=C)[C@@H](CC#N)C3)n1)CCN(c1cncc3cccc([14CH3])c13)C2` [Compound 32, 2-((S)-1-acryloyl-4-(2-(((S)-1-(methyl-d3)pyrrolidine-2-yl)methoxy)-7-(5-(methyl-^14C)isoquinolin-4-yl)-5,6,7,8-tetrahydropyrido[3,4-d]pyrimidin-4-yl)piperazin-2-yl)acetonitrile] in this work.
A pIC50 (KRAS G12C protein) greater than 6.00 was found for `[2H]C([2H])([2H])CN1CCC[C@H]1COc1nc2c(c(N3CCN(C(=O)C=C)[C@@H](CC#N)C3)n1)CCN(c1cccc3cccc(C)c13)C2` [Compound 33, 2-((S)-1-acryloyl-4-(2-(((S)-1-(ethyl-2,2,2-d3)pyrrolidin-2-yl)methoxy)-7-(8-methylnaphthalen-1-yl)-5,6,7,8-tetrahydropyrido[3,4-d]pyrimidin-4-yl)piperazin-2-yl)acetonitrile] in this work.
A pIC50 (KRAS G12C protein) greater than 6.00 was found for `[2H]C([2H])([2H])CN1CCC[C@H]1COc1nc2c(c(N3CCN(C(=O)C=C)[C@@H](CC#N)C3)n1)CCN(c1cccc3cccc(Cl)c13)C2` [Compound 34, 2-((S)-1-acryloyl-4-(7-(8-chloronaphthalene-1-yl)-2-(((S)-1-(ethyl-2,2,2-d3)pyrrolidin-2-yl)methoxy)-5,6,7,8-tetrahydropyrido[3,4-d]pyrimidin-4-yl)piperazin-2-yl)acetonitrile] in this work.
A pIC50 (KRAS G12C protein) greater than 6.00 was found for `[2H]C([2H])([2H])C([2H])([2H])N1CCC[C@H]1COc1nc2c(c(N3CCN(C(=O)C=C)[C@@H](CC#N)C3)n1)CCN(c1cccc3cccc(C)c13)C2` [Compound 35, 2-((S)-1-acryloyl-4-(2-(((S)-1-(ethyl-d5)pyrrolidin-2-yl)methoxy)-7-(8-methylnaphthalen-1-yl)-5,6,7,8-tetrahydropyrido[3,4-d]pyrimidin-4-yl)piperazin-2-yl)acetonitrile] in this work.
A pIC50 (KRAS G12C protein) greater than 6.00 was found for `[2H]C([2H])([2H])C([2H])([2H])N1CCC[C@H]1COc1nc2c(c(N3CCN(C(=O)C=C)[C@@H](CC#N)C3)n1)CCN(c1cccc3cccc(Cl)c13)C2` [Compound 36, 2-((S)-1-acryloyl-4-(7-(8-chloronaphthalene-1-yl)-2-(((S)-1-(ethyl-d5)pyrrolidin-2-yl)methoxy)-5,6,7,8-tetrahydropyrido[3,4-d]pyrimidin-4-yl)piperazin-2-yl)acetonitrile] in this work.
A pIC50 (KRAS G12C protein) greater than 6.00 was found for `[2H]C([2H])([2H])C([2H])(N1CCC[C@H]1COc1nc2c(c(N3CCN(C(=O)C=C)[C@@H](CC#N)C3)n1)CCN(c1cccc3cccc(C)c13)C2)C([2H])([2H])[2H]` [Compound 37, 2-((S)-1-acryloyl-4-(7-(8-methylnaphthalen-1-yl)-2-(((S)-1-(isopropyl-d7)pyrrolidin-2-yl)methoxy)-5,6,7,8-tetrahydropyrido[3,4-d]pyrimidin-4-yl)piperazin-2-yl)acetonitrile] in this work.
A pIC50 (KRAS G12C protein) greater than 6.00 was found for `[2H]C([2H])([2H])C([2H])(N1CCC[C@H]1COc1nc2c(c(N3CCN(C(=O)C=C)[C@@H](CC#N)C3)n1)CCN(c1cccc3cccc(Cl)c13)C2)C([2H])([2H])[2H]` [Compound 38, 2-((S)-1-acryloyl-4-(7-(8-chloronaphthalene-1-yl)-2-(((S)-1-(isopropyl-d7)pyrrolidin-2-yl)methoxy)-5,6,7,8-tetrahydropyrido[3,4-d]pyrimidin-4-yl)piperazin-2-yl)acetonitrile] in this work.
A pIC50 (KRAS G12C protein) greater than 6.00 was found for `C=CC(=O)N1CCN(c2nc(OC[C@@H]3CCCN3[14CH3])nc3c2CCN(c2cccc4cccc(C)c24)C3)C[C@@H]1CC#N` [Compound 39, 2-((S)-1-acryloyl-4-(2-(((S)-1-(methyl-^14C)pyrrolidin-2-yl)methoxy)-7-(8-methylnaphthalen-1-yl)-5,6,7,8-tetrahydropyrido[3,4-d]pyrimidin-4-yl)piperazin-2-yl)acetonitrile] in this work.
In the case of `CC(C)[N+](C)(CCOC(=O)C1c2ccccc2Oc2ccccc21)C(C)C` [Propantheline Bromide, reference compound], the “Remaining percentage (%) 0 min” value ([1]; human plasma, 37° C., 0 min) was 100.00%, the “Remaining percentage (%) 30 min” value ([1]; human plasma, 37° C., 30 min) was 33.35% and the “Remaining percentage (%) 60 min” value ([1]; human plasma, 37° C., 60 min) was 7.71%. For the same compound, the “Remaining percentage (%) 120 min” value ([1]; human plasma, 37° C., 120 min) was 0.15%, the “Remaining percentage (%) 180 min” value ([1]; human plasma, 37° C., 180 min) was “BLOD” and the “Remaining percentage (%) 240 min” value ([1]; human plasma, 37° C., 240 min) was “BLOD”. The half-life at 5 μM ([1]; human, plasma) was 19 min.
